Assay: xn = mol fraction of the nth substance listed
Settings: 101 kPa, Liquid; for speed of sound: Sing-around technique in a fixed-path interferometer; for mass density: Vibrating tube method

CCCC[n+]1ccc(C)cc1.F[B-](F)(F)F [1-butyl-4-methylpyridinium tetrafluoroborate] + CO
Settings	mass density, 293.15 K [kg/m3]	mass density, 303.15 K [kg/m3]	mass density, 313.15 K [kg/m3]	mass density, 323.15 K [kg/m3]	speed of sound, 293.15 K [m/s]	speed of sound, 303.15 K [m/s]	speed of sound, 313.15 K [m/s]	speed of sound, 323.15 K [m/s]
x1 = 0.0507	881.091	872.29	863.158	854.017	1208.6	1178.1	1148.1	1119.5
x1 = 0.0989	939.26	930.783	922.085	–	1271.8	1242.3	1214.2	–
x1 = 0.1922	1013.58	1005.46	997.343	989.026	1364.3	1337.8	1311.3	1289
x1 = 0.2934	1064.12	1056.34	1048.54	1040.72	1433.1	1409.5	1381.4	1361.5
x1 = 0.3877	1096.33	1088.9	1081.21	1073.75	1479.9	1455.9	1431.2	1407.8
x1 = 0.4839	1120.56	1113.33	1105.85	1098.72	1517	1490.9	1464.4	1439.8
x1 = 0.5909	1140.92	1133.83	1126.57	1119.63	1546.9	1521.3	1494.6	1471.5
x1 = 0.6925	1155.91	1148.93	1141.79	1134.99	1568.3	1543.5	1518.2	1494.6
x1 = 0.8001	1168.52	1161.62	1154.59	1147.87	1587.9	1563.2	1538.4	1516
x1 = 0.9042	1178.4	1171.56	1164.56	1157.92	1602.5	1577.6	1553.6	1531.3
x1 = 0.9535	1182.44	1175.62	1168.62	1162.01	1607.8	1583.1	1558.9	1536.3
